Assay results published in patent publication US12644045B2, “Fluorescent compounds and application thereof” (The Hong Kong University of Science and Technology, priority 2020, dated 2026).
Values belong to the compound of their own block, whether it stands above or below them.

Experiments:
[1] = Photophysical properties (PL emission, quantum yield, AIE); assay type: physicochemical; settings: for aggregation induced emission (AIE): THF/water mixtures with increasing water fraction
Procedure: FIG. 16A Normalized absorption and PL spectra of TBSM in THF solution (c=10^−5 M) and FIG. 16B Normalized absorption and PL spectra of TBSM in solid state. λex=460 nm.
FIG. 17A PL spectra of TBSM in water/THF mixtures with different water fractions (fw); FIG. 17B Plots of relative PL intensity (αAIE=I/I0, I0=PL intensity in pure THF at 672 nm) vs fw. c=10 μM, λex=460 nm. Insert: the fluorescence pictures of the mixture with fw=50% and 95%.
FIG. 23A Absorption spectra of TBSMCN in THF (c=10^−5 mol/L) and as film. FIG. 23B PL spectra of TBSMCN in THF (c=10^−5 mol/L) and as film, λex=530 nm.
FIG. 24A PL spectra of TBSMCN in H2O/THF mixtures with different water fractions (fw). Concentration: 10^−5 M; λex=530 nm. FIG. 24B Plots of relative emission intensity (I/I0) versus the composition of the mixture, where I0=PL intensity in pure THF at λem=810 nm.
UV spectrum FIG. 27A and PL spectrum FIG. 27B of TBSMPy in film state. λex=560 nm.
UV spectrum FIG. 28A and PL spectrum FIG. 28B of TBSMDPy in film state. λex=580 nm.
The photophysical properties of TBSM were first examined. […] TBSM gave a much brighter red emission in toluene solution with an emission wavelength at 605 nm and a QY of 67.9%. While in THF solution, the emission wavelength red-shifted to 669 nm with a QY of 4.1%.
We then investigated the luminescence behavior of TBSM in the mixture of THF and water to see whether it is AIE-active. When adding water into the THF solution, the photoluminescence (PL) intensity decreased with the water fraction (fw) in a range of 0-50%. In this case, the TICT effect dominated the photophysical process and reduced the emission intensity. When the fw exceeded 50%, the TBSM molecule began to aggregate and made the local microenvironment less polar. Therefore, the conformation rigidification became dominated and reversed the PL intensity from weak to strong.
To gain an insight to the details of the photophyscial properties of TBSM, we analyzed its crystal structure. TBSM molecules also show bright emission in the solid state since the locked nonplanar conformation can avoid the strong intermolecular π-π interactions. Indeed, no strong intermolecular π-π stacking has been observed in the crystal packing of TBSM. However, multiple intermolecular non-covalent interactions such as S . . . π, C≡N . . . π, C—H . . . N, C—H . . . S, and intermolecular hydrogen bonding interactions were observed which helps lock the solid-state molecular motion.
The photophysical properties of TBSMCN were investigated. […] In the film, the ICT peak further red shifted to 580 nm. […] TBSMCN was also AIE-active, showing increased PL emission intensity in the mixture of THF and water as the water fraction increased (FIG. 24A and FIG. 24B).
The photophysical properties of TBSMPy and TBSMDPy were studied. In the film state, they had absorption peaks around 400 nm and 580 nm. The emission peaks were at 750 nm with high QY of 16.3% and 25.0% for TBSMPy and TBSMDPy, respectively (FIGS. 27 and 28).

[2] = tested on: lipid droplets (LDs) in Hela cells; assay: Co-localization with BODIPY 493/503 in live Hela cells (confocal imaging); assay type: cell-based; settings: 2 μM TBSM 1 h, co-stained with BODIPY 493/503
Procedure: FIG. 19 Confocal fluorescent images of live HeLa cell stained with 2 μM TBSM (1 h) and 1 μg/mL BODIPY (1 h). TBSM: λex=488 nm, λem=550-650 nm; BODIPY: λex=488 nm, λem=490-535 nm. Scale bar=20 μm. The number on the figure is colocalization coefficient.
To confirm the specificity of the TBSM for LDs imaging, the co-localization experiments were then carried out by incubating Hela cells with TBSM and BODIPY 493/503, a commercial dye for LDs.

A549 and Hela cells = assay: Live cell staining of A549 and Hela cells; assay type: cell-based; settings: 2 μM, 1 h
[3] = tested on: LDs in the yolk sac of zebrafish embryos; assay: In vivo zebrafish embryo imaging; settings: 3-day-old zebrafish embryos, stained for 30 min
Procedure: FIG. 22 In vivo zebrafish embryo imaging stained with TBSM (1 μM, […]), λex=488 nm, λem=550-650 nm. The right is the enlarged part of white frame in the left.
Yolk sac as a neutral lipid and polar phospholipids storage organ provides energy for the upgrowth of zebrafish. Intense red fluorescence signals originating from the yolk sac in 3-day-old zebrafish embryos were observed after stained with TBSM for 30 min (FIG. 22).

[4] = tested on: LDs of liver tissues of mice; assay: Ex vivo co-staining with BODIPY in high-fat feeding mice liver tissue; settings: TBSM 2 μM 1 h, BODIPY 2 μM 1 h
Procedure: FIG. 20 Co-stained ex vivo confocal one-photon (λex=488 nm) images TBSM (2 μM, 1 h) and BODIPY (2 μM, 1 h) in high-fat feeding mice liver tissue. TBSM: λex=488 nm, λem=550-650 nm; BODIPY: μex=488 nm, λem=490-535 nm. Scale bar: 10 μm. The number on the picture is colocalization coefficient.

- aggregation induced emission (AIE) [1]: AIE-active
- QY ([1]; film state): about 10%
SMILES: N#CC(C#N)=C1Sc2c(c(-c3ccc(N(c4ccccc4)c4ccccc4)cc3)c3nsnc3c2C#N)S1 [TBSMCN]

- QY ([1]; film state): 16.3%
- emission peak ([1]; film state): 750 nm
SMILES: N#CC(C#N)=C1Sc2c(c(-c3ccc(N(c4ccccc4)c4ccccc4)cc3)c3nsnc3c2C#Cc2ccncc2)S1 [TBSMPy]

- QY ([1]; film state): 25.0%
- emission peak ([1]; film state): 750 nm
SMILES: N#CC(C#N)=C1Sc2c(c(-c3ccc(N(c4ccccc4)c4ccccc4)cc3)c3nsnc3c2C#Cc2cc(C#Cc3cccnc3)cc(C#Cc3cccnc3)c2)S1 [TBSMDPy]

- QY ([1]; THF solution): 4.1%
- emission wavelength ([1]; THF solution): 669 nm
- aggregation induced emission (AIE) [1]: exhibits typical AIE property
- emission wavelength ([1]; solid): 670 nm
- quantum yield ([1]; solid): 13%
- QY ([1]; toluene solution): 67.9%
- emission wavelength ([1]; toluene solution): 605 nm
SMILES: N#CC(C#N)=C1Sc2c(F)c(-c3ccc(N(c4ccccc4)c4ccccc4)cc3)c3nsnc3c2S1 [TBSM]
- co-localization coefficient [2]: 0.91
- permeability for living cells (A549 and Hela cells): fast permeability
- specificity toward LDs in vivo [3]: highly specific toward LDs
- co-localization coefficient [4]: 0.97
